Source: PubChem BioAssay AID2060513 (Molecular Pharmacology Branch, DTP, NCI, 2025)

Test system: 299254-011-R-J1-PDC complex spheroids viability
Experiment: Anticancer human tumor 299254-011-R-J1-PDC patient-derived melanoma cell line growth inhibition [GQUAD]
Conditions: for IC50: curve of first compound; for viability, T/C: stronger effect = lower value
In short: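 Tumor cells were grown as complex spheroids with HUVEC endothelial cells and mesenchymal stem cells as stroma. G-quadruplex stabilizers were combined with targeted agents over half-log dilutions from near the clinical Cmax, or from 10 microM.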

[1] = second compound 0.0316 µM, first compound 0.0316 µM
[2] = second compound 0.0316 µM, first compound 0.1 µM
[3] = second compound 0.0316 µM, first compound 0.316 µM
[4] = second compound 0.0316 µM, first compound 1 µM
[5] = second compound 0.0316 µM, first compound 3.16 µM
[6] = second compound 0.0316 µM, first compound 10 µM
[7] = second compound 0.1 µM, first compound 0.0316 µM
[8] = second compound 0.1 µM, first compound 0.1 µM
[9] = second compound 0.1 µM, first compound 0.316 µM
[10] = second compound 0.1 µM, first compound 1 µM
[11] = second compound 0.1 µM, first compound 3.16 µM
[12] = second compound 0.1 µM, first compound 10 µM
[13] = second compound 0.316 µM, first compound 0.0316 µM
[14] = second compound 0.316 µM, first compound 0.1 µM
[15] = second compound 0.316 µM, first compound 0.316 µM
[16] = second compound 0.316 µM, first compound 1 µM
[17] = second compound 0.316 µM, first compound 3.16 µM
[18] = second compound 0.316 µM, first compound 10 µM
[19] = second compound 1 µM, first compound 0.0316 µM
[20] = second compound 1 µM, first compound 0.1 µM
[21] = second compound 1 µM, first compound 0.316 µM
[22] = second compound 1 µM, first compound 1 µM
[23] = second compound 1 µM, first compound 3.16 µM
[24] = second compound 1 µM, first compound 10 µM
[25] = second compound 3.16 µM, first compound 0.0316 µM
[26] = second compound 3.16 µM, first compound 0.1 µM
[27] = second compound 3.16 µM, first compound 0.316 µM
[28] = second compound 3.16 µM, first compound 1 µM
[29] = second compound 3.16 µM, first compound 3.16 µM
[30] = second compound 3.16 µM, first compound 10 µM
[31] = second compound 10 µM, first compound 0.0316 µM
[32] = second compound 10 µM, first compound 0.1 µM
[33] = second compound 10 µM, first compound 0.316 µM
[34] = second compound 10 µM, first compound 1 µM
[35] = second compound 10 µM, first compound 3.16 µM
[36] = second compound 10 µM, first compound 10 µM
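Further: spheroids exposed to the agents for seven days before readout.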
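Wherever viability, T/C is given: percent viability relative to DMSO vehicle control wells = 100%.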

CC(C)(O)C1CCC(Nc2ccc3ncc(-c4cccc(C(F)(F)F)c4)n3n2)CC1 (stereo unspecified) + Cc1cnc(CNC(=O)c2c(=O)c3ccc(N4CCCN(C)CC4)nc3n3c2sc2ccccc23)cn1
IC50 (second compound 0.0316 µM): > 10000 nM
IC50 (second compound 0.1 µM): > 10000 nM
IC50 (second compound 0.316 µM): > 10000 nM
IC50 (second compound 1 µM): 4520 nM
IC50 (second compound 3.16 µM): 1960 nM
IC50 (second compound 10 µM): < 31.6 nM
viability, T/C [1]: 98.5%
viability, T/C [2]: 114%
viability, T/C [3]: 97.5%
viability, T/C [4]: 90.7%
viability, T/C [5]: 54.5%
viability, T/C [6]: 100%
viability, T/C [7]: 89.3%
viability, T/C [8]: 101%
viability, T/C [9]: 113%
viability, T/C [10]: 98.6%
viability, T/C [11]: 63.7%
viability, T/C [12]: 110%
viability, T/C [13]: 90.1%
viability, T/C [14]: 100%
viability, T/C [15]: 88.4%
viability, T/C [16]: 98.2%
viability, T/C [17]: 60%
viability, T/C [18]: 84%
viability, T/C [19]: 81.7%
viability, T/C [20]: 112%
viability, T/C [21]: 96.7%
viability, T/C [22]: 74.7%
viability, T/C [23]: 55.8%
viability, T/C [24]: 42.3%
viability, T/C [25]: 76.7%
viability, T/C [26]: 85.9%
viability, T/C [27]: 86.4%
viability, T/C [28]: 76.8%
viability, T/C [29]: 24.1%
viability, T/C [30]: 37.6%
viability, T/C [31]: 45.7%
viability, T/C [32]: 18%
viability, T/C [33]: 17.3%
viability, T/C [34]: 0.33%
viability, T/C [35]: 0.29%
viability, T/C [36]: 0.26%

COc1ncnc(C2CC2)c1-c1ncc2cnn(Cc3ccc(-c4nc(C(F)(F)F)cn4C(C)C)cc3)c2n1 + Cc1cnc(CNC(=O)c2c(=O)c3ccc(N4CCCN(C)CC4)nc3n3c2sc2ccccc23)cn1
IC50 (second compound 0.0316 µM): > 10000 nM
IC50 (second compound 0.1 µM): > 10000 nM
IC50 (second compound 0.316 µM): > 10000 nM
IC50 (second compound 1 µM): > 10000 nM
IC50 (second compound 3.16 µM): > 10000 nM
IC50 (second compound 10 µM): 3440 nM
viability, T/C [1]: 92.3%
viability, T/C [2]: 98.2%
viability, T/C [3]: 84.8%
viability, T/C [4]: 88.6%
viability, T/C [5]: 110%
viability, T/C [6]: 126%
viability, T/C [7]: 113%
viability, T/C [8]: 97.9%
viability, T/C [9]: 81.5%
viability, T/C [10]: 97.8%
viability, T/C [11]: 91.9%
viability, T/C [12]: 108%
viability, T/C [13]: 87.3%
viability, T/C [14]: 88.9%
viability, T/C [15]: 120%
viability, T/C [16]: 101%
viability, T/C [17]: 93.2%
viability, T/C [18]: 97.8%
viability, T/C [19]: 68.7%
viability, T/C [20]: 102%
viability, T/C [21]: 90.1%
viability, T/C [22]: 88.1%
viability, T/C [23]: 102%
viability, T/C [24]: 76.8%
viability, T/C [25]: 87.4%
viability, T/C [26]: 69.8%
viability, T/C [27]: 76.4%
viability, T/C [28]: 70.9%
viability, T/C [29]: 77.3%
viability, T/C [30]: 79%
viability, T/C [31]: 38.5%
viability, T/C [32]: 24.7%
viability, T/C [33]: 68%
viability, T/C [34]: 77.7%
viability, T/C [35]: 63.6%
viability, T/C [36]: 0.43%

Cc1[nH]c2ccccc2c1CCNCc1ccc(/C=C/C(=O)NO)cc1 + Cc1cnc(CNC(=O)c2c(=O)c3ccc(N4CCCN(C)CC4)nc3n3c2sc2ccccc23)cn1
IC50 (second compound 0.0316 µM): 139 nM
IC50 (second compound 0.1 µM): 172 nM
IC50 (second compound 0.316 µM): 101 nM
IC50 (second compound 1 µM): 48.4 nM
IC50 (second compound 3.16 µM): 45.5 nM
IC50 (second compound 10 µM): < 0.999 nM
viability, T/C (second compound 0.0316 µM, first compound 0.000999 µM): 92.3%
viability, T/C (second compound 0.0316 µM, first compound 0.00316 µM): 84.4%
viability, T/C (second compound 0.0316 µM, first compound 0.00999 µM): 94.6%
viability, T/C [1]: 80.3%
viability, T/C (second compound 0.0316 µM, first compound 0.0999 µM): 65.2%
viability, T/C [3]: 14.4%
viability, T/C (second compound 0.1 µM, first compound 0.000999 µM): 92.7%
viability, T/C (second compound 0.1 µM, first compound 0.00316 µM): 106%
viability, T/C (second compound 0.1 µM, first compound 0.00999 µM): 97.1%
viability, T/C [7]: 80.7%
viability, T/C (second compound 0.1 µM, first compound 0.0999 µM): 87.6%
viability, T/C [9]: 10.7%
viability, T/C (second compound 0.316 µM, first compound 0.000999 µM): 107%
viability, T/C (second compound 0.316 µM, first compound 0.00316 µM): 92.4%
viability, T/C (second compound 0.316 µM, first compound 0.00999 µM): 97.3%
viability, T/C [13]: 91.3%
viability, T/C (second compound 0.316 µM, first compound 0.0999 µM): 50.4%
viability, T/C [15]: 10.3%
viability, T/C (second compound 1 µM, first compound 0.000999 µM): 86.5%
viability, T/C (second compound 1 µM, first compound 0.00316 µM): 103%
viability, T/C (second compound 1 µM, first compound 0.00999 µM): 79.7%
viability, T/C [19]: 63.4%
viability, T/C (second compound 1 µM, first compound 0.0999 µM): 28.6%
viability, T/C [21]: 4.65%
viability, T/C (second compound 3.16 µM, first compound 0.000999 µM): 82.8%
viability, T/C (second compound 3.16 µM, first compound 0.00316 µM): 77.7%
viability, T/C (second compound 3.16 µM, first compound 0.00999 µM): 68.4%
viability, T/C [25]: 63.5%
viability, T/C (second compound 3.16 µM, first compound 0.0999 µM): 28%
viability, T/C [27]: 0.2%
viability, T/C (second compound 10 µM, first compound 0.000999 µM): 26.3%
viability, T/C (second compound 10 µM, first compound 0.00316 µM): 8.63%
viability, T/C (second compound 10 µM, first compound 0.00999 µM): 0.47%
viability, T/C [31]: 0.44%
viability, T/C (second compound 10 µM, first compound 0.0999 µM): 0.35%
viability, T/C [33]: 0.26%
